“And” between values parts separate entries of the source, which are not always exact repeats. Identical values can stand only once.
Experiments:
[1] = target: USP34 (Homo sapiens, UniProt Q70CQ2); test: Biochemical DUB selectivity profiling assay: USP34; details: Ub-Rho110 400 nM, buffer B; read-out: Biochemical IC50 range, USP34
Procedure: (§1) DUB Assay Substrate Substrate
(§2) Buffer Concentration (nM) […]
(§3) Sepharose® 4B resin (GE Healthcare).
(§4) 10 kDa molecular weight cut-off (MWCO)).
(§5) Fractions containing protein
(§6) Protein concentration was […]
(§7) reaction volume of 21 μL. […]
(§8) compound (final concentration 5 nM).
(§9) IC50 values were determined
(§10) Biochemical DUB selectivity profiling assays […]
(§11) in 40 µL total reaction volume.

[2] = target: T1, TRABID (Homo sapiens, UniProt Q9UGI0); test: Biochemical DUB selectivity profiling assay: TRABID; details: Ub-Rho110 400 nM, buffer B; read-out: Biochemical IC50 range, TRABID
T1 sequence (Q9UGI0 1-708): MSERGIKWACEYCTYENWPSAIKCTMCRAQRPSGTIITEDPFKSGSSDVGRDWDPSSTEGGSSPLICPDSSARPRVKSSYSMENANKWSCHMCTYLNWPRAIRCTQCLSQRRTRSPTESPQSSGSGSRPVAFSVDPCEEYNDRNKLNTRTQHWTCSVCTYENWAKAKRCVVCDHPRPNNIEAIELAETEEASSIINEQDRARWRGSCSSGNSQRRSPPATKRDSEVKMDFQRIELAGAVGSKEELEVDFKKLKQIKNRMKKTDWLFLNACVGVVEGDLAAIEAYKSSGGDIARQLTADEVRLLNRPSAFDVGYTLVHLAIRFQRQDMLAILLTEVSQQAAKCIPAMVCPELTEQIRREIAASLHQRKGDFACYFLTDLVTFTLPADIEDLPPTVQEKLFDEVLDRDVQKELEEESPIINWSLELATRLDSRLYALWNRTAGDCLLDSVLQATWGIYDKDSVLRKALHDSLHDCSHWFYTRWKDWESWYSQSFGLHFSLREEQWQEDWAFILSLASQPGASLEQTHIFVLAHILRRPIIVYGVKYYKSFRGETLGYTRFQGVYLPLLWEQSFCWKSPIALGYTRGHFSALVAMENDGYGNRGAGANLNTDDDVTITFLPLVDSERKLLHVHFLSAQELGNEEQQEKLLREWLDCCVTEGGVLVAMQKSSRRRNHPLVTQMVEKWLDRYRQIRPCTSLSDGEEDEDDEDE
Procedure: as §1, §2, §3, §4, §5, §6, §7, §8, §9, §10, §11

[3] = target: T2, UCHL1 (Homo sapiens, UniProt P09936); test: biochemical
T2 sequence (P09936 1-223): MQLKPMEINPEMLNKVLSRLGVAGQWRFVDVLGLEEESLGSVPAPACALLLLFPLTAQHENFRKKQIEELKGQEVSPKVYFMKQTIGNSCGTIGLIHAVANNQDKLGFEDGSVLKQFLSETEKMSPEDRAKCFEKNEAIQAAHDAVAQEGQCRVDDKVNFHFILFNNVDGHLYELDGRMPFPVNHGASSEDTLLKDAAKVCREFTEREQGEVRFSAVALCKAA

[4] = target: T3, BAP1 (Homo sapiens, UniProt Q92560); test: biochemical
T3 sequence (Q92560 1-729): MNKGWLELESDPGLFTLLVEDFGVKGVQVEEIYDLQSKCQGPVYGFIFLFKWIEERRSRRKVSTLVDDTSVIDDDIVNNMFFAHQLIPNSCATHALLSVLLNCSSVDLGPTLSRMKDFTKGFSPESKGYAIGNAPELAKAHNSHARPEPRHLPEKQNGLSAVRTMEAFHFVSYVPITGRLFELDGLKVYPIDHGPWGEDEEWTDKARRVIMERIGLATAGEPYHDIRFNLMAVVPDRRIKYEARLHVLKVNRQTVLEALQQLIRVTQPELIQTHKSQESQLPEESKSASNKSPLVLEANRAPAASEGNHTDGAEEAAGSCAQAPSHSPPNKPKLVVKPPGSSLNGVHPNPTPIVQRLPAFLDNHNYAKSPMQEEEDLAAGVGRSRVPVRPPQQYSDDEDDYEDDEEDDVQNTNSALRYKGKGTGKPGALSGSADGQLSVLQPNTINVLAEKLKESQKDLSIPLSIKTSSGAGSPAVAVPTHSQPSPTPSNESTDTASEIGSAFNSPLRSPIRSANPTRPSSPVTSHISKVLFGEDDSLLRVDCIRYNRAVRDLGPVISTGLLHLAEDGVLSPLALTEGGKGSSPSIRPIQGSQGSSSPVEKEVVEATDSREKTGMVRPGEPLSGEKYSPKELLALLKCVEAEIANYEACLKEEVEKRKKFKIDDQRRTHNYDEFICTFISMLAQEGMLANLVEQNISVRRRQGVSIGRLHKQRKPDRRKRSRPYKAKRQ

[5] = target: DUBs and other proteins in HEK293 cells (Homo sapiens, UniProt O00303); test: In-cell proteome-wide competitive ABPP, HEK293: other DUBs and proteins; details: for Log2 reporter intensity values, EIF3F: TMT replicates; for Log2 reporter intensity values: EIF3F: competition with ABP 2, DMSO substract (FC); for Log2 reporter intensity values: EIF3F / Log2 reporter intensity values: replicates A-C; for Log2 t-test Difference / Log2 reporter intensity values: EIF3F
[6] = target: DUBs and other proteins in HEK293 cells (Homo sapiens, UniProt P51784); test: as above; details: replicates A-C; for Log2 reporter intensity values: USP11: competition with ABP 2, DMSO substract (FC); for Log2 reporter intensity values: USP11, DMSO subtracted
[7] = target: DUBs and other proteins in HEK293 cells (Homo sapiens, UniProt Q93009); test: as above; details: replicates A-C; for Log2 reporter intensity values: USP7: competition with ABP 2, DMSO substract (FC); for Log2 reporter intensity values: USP7, DMSO subtracted
[8] = target: DUBs and other proteins in HEK293 cells (Homo sapiens, UniProt Q96BN8); test: as above; details: replicates A-C; for Log2 reporter intensity values: OTULIN: competition with ABP 2, DMSO substract (FC); for Log2 reporter intensity values: OTULIN, DMSO subtracted
Chain of DUBs and other proteins in HEK293 cells (Homo sapiens, UniProt Q96BN8) (Q96BN8 whole entry): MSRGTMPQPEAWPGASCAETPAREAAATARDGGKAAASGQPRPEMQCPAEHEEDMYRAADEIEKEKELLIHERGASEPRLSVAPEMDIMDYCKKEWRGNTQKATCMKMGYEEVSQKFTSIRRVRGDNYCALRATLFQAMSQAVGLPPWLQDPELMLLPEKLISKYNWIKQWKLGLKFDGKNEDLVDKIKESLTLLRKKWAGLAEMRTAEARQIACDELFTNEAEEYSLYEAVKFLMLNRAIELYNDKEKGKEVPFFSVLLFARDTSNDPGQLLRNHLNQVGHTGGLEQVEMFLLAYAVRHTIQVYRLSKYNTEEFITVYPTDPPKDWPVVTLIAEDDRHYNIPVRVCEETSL

Chain of DUBs and other proteins in HEK293 cells (Homo sapiens, UniProt P51784) (P51784 whole entry): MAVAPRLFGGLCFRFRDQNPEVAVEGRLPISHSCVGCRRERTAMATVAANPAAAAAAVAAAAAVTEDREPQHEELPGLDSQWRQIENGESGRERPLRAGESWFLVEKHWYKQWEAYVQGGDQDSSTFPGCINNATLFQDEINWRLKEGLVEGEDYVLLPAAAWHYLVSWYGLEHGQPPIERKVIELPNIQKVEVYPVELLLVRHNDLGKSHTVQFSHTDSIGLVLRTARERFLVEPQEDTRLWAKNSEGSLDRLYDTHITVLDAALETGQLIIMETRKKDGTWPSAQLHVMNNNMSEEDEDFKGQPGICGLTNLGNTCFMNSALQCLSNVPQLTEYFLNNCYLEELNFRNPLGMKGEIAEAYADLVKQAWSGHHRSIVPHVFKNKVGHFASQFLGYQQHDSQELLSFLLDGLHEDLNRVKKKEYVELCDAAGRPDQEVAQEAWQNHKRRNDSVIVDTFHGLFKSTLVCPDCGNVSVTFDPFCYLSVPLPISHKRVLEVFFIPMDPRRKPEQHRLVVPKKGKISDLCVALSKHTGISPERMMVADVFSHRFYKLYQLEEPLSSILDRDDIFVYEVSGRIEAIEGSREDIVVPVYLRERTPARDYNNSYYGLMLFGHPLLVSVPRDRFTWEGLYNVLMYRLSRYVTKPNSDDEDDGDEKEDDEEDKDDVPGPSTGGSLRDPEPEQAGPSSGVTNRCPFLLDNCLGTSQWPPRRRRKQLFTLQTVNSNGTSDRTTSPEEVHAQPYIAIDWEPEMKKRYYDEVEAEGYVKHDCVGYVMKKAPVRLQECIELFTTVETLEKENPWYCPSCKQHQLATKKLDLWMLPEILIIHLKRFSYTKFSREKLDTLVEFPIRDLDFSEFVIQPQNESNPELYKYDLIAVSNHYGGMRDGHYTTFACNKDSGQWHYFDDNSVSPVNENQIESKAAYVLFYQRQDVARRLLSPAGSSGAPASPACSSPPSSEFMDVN
Chain of DUBs and other proteins in HEK293 cells (Homo sapiens, UniProt Q93009) (Q93009 whole entry): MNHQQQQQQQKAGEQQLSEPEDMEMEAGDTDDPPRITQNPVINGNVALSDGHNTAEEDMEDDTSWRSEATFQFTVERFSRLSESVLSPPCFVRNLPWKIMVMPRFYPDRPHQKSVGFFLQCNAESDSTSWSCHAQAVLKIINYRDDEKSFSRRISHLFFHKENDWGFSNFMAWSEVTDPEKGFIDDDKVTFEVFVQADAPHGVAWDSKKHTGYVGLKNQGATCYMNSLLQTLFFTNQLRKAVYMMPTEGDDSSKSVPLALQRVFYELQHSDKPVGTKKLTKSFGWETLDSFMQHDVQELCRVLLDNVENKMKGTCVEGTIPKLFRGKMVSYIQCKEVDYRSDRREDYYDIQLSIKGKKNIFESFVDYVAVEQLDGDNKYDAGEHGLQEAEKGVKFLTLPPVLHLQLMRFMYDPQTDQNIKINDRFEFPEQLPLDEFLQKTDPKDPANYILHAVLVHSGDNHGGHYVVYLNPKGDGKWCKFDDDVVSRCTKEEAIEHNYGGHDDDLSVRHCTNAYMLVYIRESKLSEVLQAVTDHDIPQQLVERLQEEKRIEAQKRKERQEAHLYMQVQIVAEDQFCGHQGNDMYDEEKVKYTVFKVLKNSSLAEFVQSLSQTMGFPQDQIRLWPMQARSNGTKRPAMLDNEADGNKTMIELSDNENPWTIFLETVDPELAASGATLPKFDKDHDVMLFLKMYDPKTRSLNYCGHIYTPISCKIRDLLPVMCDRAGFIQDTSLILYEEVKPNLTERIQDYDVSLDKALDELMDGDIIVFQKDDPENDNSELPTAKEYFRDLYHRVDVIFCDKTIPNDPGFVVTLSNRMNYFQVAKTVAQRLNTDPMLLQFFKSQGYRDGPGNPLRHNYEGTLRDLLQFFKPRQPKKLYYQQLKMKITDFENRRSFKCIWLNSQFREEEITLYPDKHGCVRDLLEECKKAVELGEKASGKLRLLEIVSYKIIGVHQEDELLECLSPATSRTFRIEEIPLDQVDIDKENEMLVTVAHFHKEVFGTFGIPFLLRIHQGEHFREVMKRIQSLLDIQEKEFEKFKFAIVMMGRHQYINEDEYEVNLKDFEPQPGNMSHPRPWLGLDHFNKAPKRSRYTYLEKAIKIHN
Chain of DUBs and other proteins in HEK293 cells (Homo sapiens, UniProt O00303) (O00303 whole entry): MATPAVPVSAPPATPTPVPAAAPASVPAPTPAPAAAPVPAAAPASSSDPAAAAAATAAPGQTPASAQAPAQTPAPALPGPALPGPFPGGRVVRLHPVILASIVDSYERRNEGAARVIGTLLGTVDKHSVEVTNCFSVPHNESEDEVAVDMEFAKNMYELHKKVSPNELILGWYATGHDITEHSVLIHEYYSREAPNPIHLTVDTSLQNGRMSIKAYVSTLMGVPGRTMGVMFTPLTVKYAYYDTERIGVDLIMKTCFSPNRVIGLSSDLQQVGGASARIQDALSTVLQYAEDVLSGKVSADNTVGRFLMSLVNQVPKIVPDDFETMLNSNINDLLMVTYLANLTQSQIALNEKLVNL

N#CN1CCC[C@@H]1C(=O)N1CCc2c(-c3c[nH]c4ncccc34)cccc21 [Compound 3]
IC50 [1]: > 10 µM
IC50 [2]: > 10 µM
IC50 ([3]; Biochemical IC50 range, UCHL1, Ub-Lys-TAMRA 50 nM, buffer A): > 10 µM
IC50 ([3]; UCHL1 IC50 (FP), UCHL1 5 nM, 30 min preincubation, Ub-Lys-TAMRA 50 nM, bound = maximum assay concentration): > 100 µM
IC50 [4]: > 10 µM
Log2 reporter intensity values, EIF3F ([5]; 1 μM 3 (60 min) + 20 nM ABP 2 (10 min), All values): 0.01809 and -0.02026 and 0.07981
Log2 reporter intensity values, EIF3F ([5]; 1 μM 3 (60 min) + 20 nM ABP 2 (10 min), DMSO subtracted): 0.02764 and -0.01071 and 0.08936
Log2 reporter intensity values, EIF3F ([5]; 4 μM 3 (60 min) + 20 nM ABP 2 (10 min), All values): -0.1978 and 0.02104 and -0.01378
Log2 reporter intensity values, EIF3F ([5]; 4 μM 3 (60 min) + 20 nM ABP 2 (10 min), DMSO subtracted): -0.1882 and 0.03059 and -0.004226
Log2 reporter intensity values: EIF3F ([5]; 3 at 1 μM): 1.019 and 0.9926 and 1.064
Log2 reporter intensity values: EIF3F ([5]; 3 at 4 μM): 0.8777 and 1.021 and 0.9971
Log2 t-test Difference ([5]; 3 - 1 μM): -0.05527
Log2 t-test Difference ([5]; 3 - 4 μM): -0.1447
Log2 reporter intensity values ([5]; 3_1 μM, DMSO subtracted): 0.01893 and -0.007817 and 0.06348
Log2 reporter intensity values ([5]; 3_4 μM, DMSO subtracted): -0.1227 and 0.02101 and -0.003343
Log2 reporter intensity values ([5]; 3 at 1 μM, DMSO subtracted): 0.02764 and -0.01071 and 0.08936
Log2 reporter intensity values ([5]; 3 at 4 μM, DMSO subtracted): -0.1882 and 0.03059 and -0.004226
Log2 reporter intensity values: USP11 ([6]; 3 at 1 μM): 1.117 and 1.058 and 1.05
Log2 reporter intensity values: USP11 ([6]; 3 at 4 μM): 0.8158 and 0.9889 and 0.9502
Log2 reporter intensity values ([6]; 3_1 μM): 0.1164 and 0.05763 and 0.04999
Log2 reporter intensity values ([6]; 3_4 μM): -0.1845 and -0.01139 and -0.05014
Log2 reporter intensity values ([6]; 3 at 1 μM): 0.1593 and 0.08129 and 0.07083
Log2 reporter intensity values ([6]; 3 at 4 μM): -0.2937 and -0.01604 and -0.0737
Log2 reporter intensity values: USP7 ([7]; 3 at 1 μM): 1.005 and 1.034 and 1.047
Log2 reporter intensity values: USP7 ([7]; 3 at 4 μM): 0.9485 and 1.006 and 0.9977
Log2 reporter intensity values ([7]; 3_1 μM): 0.004952 and 0.03394 and 0.04709
Log2 reporter intensity values ([7]; 3_4 μM): -0.05181 and 0.006115 and -0.002591
Log2 reporter intensity values ([7]; 3 at 1 μM): 0.007531 and 0.04854 and 0.06677
Log2 reporter intensity values ([7]; 3 at 4 μM): -0.07633 and 0.0092 and -0.003335
Log2 reporter intensity values: OTULIN ([8]; 3 at 1 μM): 1.194 and 0.9889 and 0.9216
Log2 reporter intensity values: OTULIN ([8]; 3 at 4 μM): 0.8963 and 0.9821 and 1.002
Log2 reporter intensity values ([8]; 3_1 μM): 0.1933 and -0.01163 and -0.07888
Log2 reporter intensity values ([8]; 3_4 μM): -0.1043 and -0.01848 and 0.001875
Log2 reporter intensity values ([8]; 3 at 1 μM): 0.2556 and -0.01611 and -0.1177
Log2 reporter intensity values ([8]; 3 at 4 μM): -0.158 and -0.02613 and 0.003463
